{"source": "patent US12653840B2", "about": "“Methods for production of platelets from pluripotent stem cells and compositions thereof” (Astellas Institute for Regenerative Medicine, priority 2012, dated 2026)", "molecules": {"B1": {"name": "ReoPro: Fab fragment of a human-murine chimeric monoclonal antibody that binds specifically to αIIbβIII and inhibits platelet function (antibody, chains of the INN, looked up, V domains shown)", "VH": "EVQLQQSGTVLARPGASVKMSCEASGYTFTNYWMHWVKQRPGQGLEWIGAIYPGNSDTSYIQKFKGKAKLTAVTSTTSVYMELSSLTNEDSAVYYCTLYDGYYVFAYWGQGTLVTVSA", "VL": "EIVLTQSPVTLSVTPGDSVSLSCRASRDISNNLHWFQQTSHESPRLLIKYASQSMSGIPSRFSGSGSGTDFTLSINSVETEDFGMYFCQQTNSWPYTFGGGTKLEIK", "modifications": "Fab"}}, "key": {"MKs derived from HA-iPS": {"test_system": "MKs derived from HA-iPS", "experiment": "Platelet generation from MKs under constant shear force in a microfluidic device", "assay_type": "cell-based, human", "protocol": "Matured MKs, derived from HA-iPS and MA09 hES lines, were used. Equal numbers of MKs suspended in MK-specific medium were loaded into a microfluidic device in the presence or absence of 20 μM MMP inhibitor GM6001. Constant shear force was applied to the MKs throughout the culture period. MK-medium downstream of MKs was collected at 30 minute intervals for a period of 6 hours. Platelet number and purity (i.e., percentage of total cells that are CD41a^+CD42b^+) in the collected media were measured using flow cytometer.\nFIGS. 22-24 provide the results of platelet generation from MKs derived from HA-iPS. The platelets were generated under a constant shear force defined by a flow rate of […] μl/min. […] Purity is expressed at the percentage of total harvested cells that are CD41a+CD42b+."}, "[1]": {"test_system": "iPS derived megakaryocytes", "experiment": "Platelet formation in static culture with MMP inhibitors", "assay_type": "cell-based, human", "source_text": "FIG. 27. Platelet purity as a result of static culture in the presence of MMP8 specific inhibitor MMP8-I (second bar), pan-MMP inhibitor GM6001 (third bar), or the combination of MMP8-I and GM6001 (fourth bar). The MMP8-I is (3R)-(+)-[2-(4-Methoxybenzenesulfonyl)-1,2,3,4-tetrahydroisoquinoline-3-hydroxamate], and it is commercially available from Millipore. The first bar is the control.\nFIG. 28. Platelets numbers as a result of static culture in the presence of MMP8 specific inhibitor MMP8-I (second bar), pan MMP inhibitor GM6001 (third bar), or the combination of MMP8-I and GM6001 (fourth bar). The first bar is the control.\nThe peak of platelet production is determined by measuring platelet content in the culture, for example on a daily basis for several days. It is typically 4-7 days after the beginning of the MLP differentiation culture period, although it may be longer or it may be shifted."}, "[2]": {"test_system": "cells undergoing in vitro megakaryopoiesis", "experiment": "iBET-151 in PVE-HE to MLP differentiation culture, harvest at day 6+4", "assay_type": "cell-based, human", "procedure": "Megakaryocyte progenitor (MLP) numbers harvested at day 6+4 (i.e., day 10 of differentiation) as a function of increasing dose of iBET-151 (in μM). iBET is added to the culture at the 6+3 day time frame, and MLPs are exposed to iBET for a period of about 24 hours prior to their harvest. iBET concentrations: 0 (left bar), 0.1 microM (middle bar), 0.25 microM (right bar). […] CD14+ cell purity in cell population harvested at day 6+4 as a function of increasing dose of iBET-151. iBET concentrations: 0 (left bar), 0.1 microM (middle bar), 0.25 microM (right bar)."}, "[3]": {"test_system": "human and murine MLL-fusion leukemic cell lines", "details": "through induction of early cell cycle arrest and apoptosis; cited from earlier work"}, "GATA-1": {"test_system": "GATA-1", "experiment": "Relative quantitative mRNA analysis on day 6+4", "assay_type": "cell-based, human", "details": "0.1 and 0.25 microM", "source_text": "(§1) FIG. 32. Relative quantitative analysis of mRNA of c-myc and GATA-1 on day 6+4 as a function of increasing dose of iBET-151. iBET concentrations: 0 (left bar), 0.1 microM (middle bar), 0.25 microM (right bar) for each triplet."}, "c-myc": {"test_system": "c-myc", "experiment": "Relative quantitative mRNA analysis on day 6+4", "assay_type": "cell-based, human", "details": "0.1 and 0.25 microM", "source_text": "as §1"}, "CD42b": {"test_system": "CD42b", "details": "reported; cited from earlier work"}, "[4]": {"test_system": "developing mouse platelet thrombus", "experiment": "In vivo thrombus formation after laser-induced cremaster arteriolar wall injury, intravital microscopy", "design": "species or system macrophage-depleted NOD/SCID mice", "details": "platelets pretreated with ReoPro", "protocol": "Third, hiPSC-PLTs were analyzed for functionality using an in vivo assay system measuring thrombus formation in macrophage-depleted NOD/SCID mice. Briefly, intravital microscopy of cremaster muscle arterioles was performed as previously described (Cell Research 2011 21:530-45). Macrophage-depleted NOD/SCID mice were anesthetized by intraperitoneal injection of ketamine (125 mg/kg) and xylazine (25 mg/kg). A tracheal tube was inserted and the mouse was placed on a thermo-controlled blanket. After incision of the scrotum, the cremaster muscle was exteriorized onto an intravital microscopy tray. The muscle preparation was superfused with thermo-controlled (37° C.) and aerated (95% N2, 5% CO2) bicarbonate-buffered saline throughout the experiment. The cremaster muscle arteriolar wall was injured by micropoint laser ablation using a Micropoint Laser System (Photonics Instruments). […] Fluorescence and brightfield images were recorded using an Olympus BX61W microscope with a 60 x/1.0 NA water immersion objective and a high speed camera (Hamamatsu C9300) through an intensifier (Video Scope International). Data were collected for 5 min following vessel wall injury and analyzed using Slidebook v5.0 (Intelligent Imaging Innovations)."}}, "note": "Entries after “also recorded” stand apart in the source; their conditions may differ."}
{"molecule": "dextran", "values": [{"measurement": "platelet formation", "setting": "MKs derived from HA-iPS; 8% dextran added to increase viscosity of culture medium, with GM6001, shear force", "value": "negative impact"}]}
{"molecule": "COc1ccc(S(=O)(=O)N2Cc3ccccc3C[C@@H]2C(=O)NO)cc1", "note": "[MMP8 specific inhibitor, (3R)-(+)-[2-(4-Methoxybenzenesulfonyl)-1,2,3,4-tetrahydroisoquinoline-3-hydroxamate]]", "values": [{"measurement": "purity of iPS-derived platelets (CD41a+CD42b+)", "setting": "[1]; added at peak of platelet production of MKs, static culture, control 43.7%", "value": 65.5, "unit": "%"}, {"measurement": "potency in protecting platelet function", "setting": "[1]; comparative study of several specific MMP inhibitors", "value": "more potency than GM6001"}, {"measurement": "CD41a+CD42b+ platelets produced, compared to GM6001", "setting": "[1]; static culture", "value": "Significantly more"}, {"measurement": "purity, more than obtained from GM6001-treated cultures", "setting": "[1]; static culture", "value": "approximately 10%"}]}
{"molecule": "COc1cc2c(cc1-c1c(C)noc1C)ncc1[nH]c(=O)n([C@H](C)c3ccccn3)c12", "note": "[i-BET-151]", "values": [{"measurement": "number of CD14+ myeloid cells", "setting": "[2]; 0.1 and 0.25 microM, day 6+4", "value": "dose-dependent decrease"}, {"measurement": "apoptosis", "setting": "[2]; high dose", "value": "triggers massive apoptosis"}, {"measurement": "numbers of MK progenitors", "setting": "[2]; lower doses in the micromolar (or submicromolar) range, 0.1 and 0.25 microM, about 24 hours", "value": "increased numbers"}, {"measurement": "efficacy against MLL-fusion leukemic cell lines", "setting": "[3]", "value": "profound efficacy"}, {"measurement": "GATA1 gene expression (mRNA)", "setting": "GATA-1", "value": "up-regulated"}, {"measurement": "c myc gene expression (mRNA)", "setting": "c-myc", "value": "dose:-dependent inhibition"}]}
{"molecule": "CNC(=O)[C@H](Cc1c[nH]c2ccccc12)NC(=O)[C@@H](CC(=O)NO)CC(C)C", "note": "[GM6001]", "values": [{"measurement": "platelet purity (percentage of total harvested cells that are CD41a+CD42b+)", "setting": "MKs derived from HA-iPS; 20 μM, added at beginning of culture, constant shear force, vs DMSO", "value": "significantly improved"}, {"measurement": "platelet yield / platelet numbers", "setting": "MKs derived from HA-iPS; 20 μM, constant shear force, vs DMSO", "value": "significantly improved; also recorded: significantly more platelets"}, {"measurement": "CD42b shedding from platelets", "setting": "CD42b", "value": "inhibit CD42b shedding"}]}
{"molecule": "B1", "values": [{"measurement": "number of platelets bound to / incorporating in the thrombus after ReoPro pretreatment", "setting": "[4]", "value": "inhibited; also recorded: markedly reduced"}]}
